Measurements published in US6248586A, “Antisense modulation of PKA catalytic subunit C-alpha expression” (Isis Pharmaceuticals, Inc., priority 1999, dated 2001).

Tested on: human PKA catalytic subunit C-alpha mRNA
Test: Inhibition of PKA catalytic subunit C-alpha mRNA levels in oligonucleotide-treated cells, quantitative real-time PCR
Format: cell-based
Parameters: concentration or dose not given beside the values
Settings: Table 1, phosphorothioate oligodeoxynucleotides, averages from two experiments
Description: when cells reached 80% confluency, they were treated with oligonucleotide. For cells grown in 96-well plates, wells were washed once with 200 μL. OPTI-MEM™-1 reduced-serum medium (Gibco BRL) and then treated with 130 μL of OPTI-MEM™-1 containing 3.75 μg/mL LIPOFECTIN™ (Gibco BRL) and the desired concentration of oligonucleotide. After 4-7 hours of treatment, the medium was replaced with fresh medium. Cells were harvested 16-24 hours after oligonucleotide treatment.
Poly(A)+ mRNA was isolated according to Miura et al., Clin. Chem., 1996, 42, 1758-1764. Other methods for poly(A)+ mRNA isolation are taught in, for example, Ausubel, F. M. et al., Current Protocols in Molecular Biology, Volume 1, pp. 4.5.1-4.5.3, John Wiley & Sons, Inc., 1993. Briefly, for cells grown on 96-well plates, growth medium was removed from the cells and each well was washed with 200 μL cold PBS. 60 μL lysis buffer (10 mM Tris-HCl, pH 7.6, 1 mM EDTA, 0.5 M NaCl, 0.5% NP-40, 20 mM vanadyl-ribonucleoside complex) was added to each well, the plate was gently agitated and then incubated at room temperature for five minutes. 55 μL of lysate was transferred to Oligo d(T) coated 96-well plates (AGCT Inc., Irvine Calif.). Plates were incubated for 60 minutes at room temperature, washed 3 times with 200 μL of wash buffer (10 mM Tris-HCl pH 7.6, 1 mM EDTA, 0.3 M NaCl). After the final wash, the plate was blotted on paper towels to remove excess wash buffer and then air-dried for 5 minutes. 60 μL of elution buffer (5 mM Tris-HCl pH 7.6), preheated to 70° C. was added to each well, the plate was incubated on a 90° C. hot plate for 5 minutes, and the eluate was then transferred to a fresh 96-well plate.
Quantitat:ion of PKA catalytic subunit C-alpha mRNA levels was determined by real-time quantitative PCR using the ABI PRISM™ […] Sequence Detection System (PE-Applied Biosystems, Foster City, Calif.) according to manufacturer's instructions. This is a closed-tube, non-gel-based, fluorescence detection system which allows high-throughput quantitation of polymerase chain reaction (PCR) products in real-time. As opposed to standard PCR, in which amplification products are quantitated after the PCR is completed, products in real-time quantitative PCR are quantitated as they accumulate. This is accomplished by including in the PCR reaction an oligonucleotide probe that anneals specifically between the forward and reverse PCR primers, and contains two fluorescent dyes. A reporter dye (e.g., JOE, FAM, or VIC, obtained from either Operon Technologies Inc., Alameda, Calif. or PE-Applied Biosystems, Foster City, Calif.) is attached to the 5' end of the probe and a quencher dye (e.g., TAMRA, obtained from either Operon Technologies Inc., Alameda, Calif. or PE-Applied Biosystems, Foster City, Calif.) is attached to the 3' end of the probe. When the probe and dyes are intact, reporter dye emission is quenched by the proximity of the 3' quencher dye. During amplification, annealing of the probe to the target sequence creates a substrate that can be cleaved by the 5'-exonuclease activity of Taq polymerase. […] With each cycle, additional reporter dye molecules are cleaved from their respective probes, and the fluorescence intensity is monitored at regular intervals by laser optics built into the ABI PRISM™ 7700 Sequence Detection System. In each assay, a series of parallel reactions containing serial dilutions of mRNA from untreated control samples generates a standard curve that is used to quantitate the percent inhibition after antisense oligonucleotide treatment of test samples.
PCR reagents were obtained from PE-Applied Biosystems, Foster City, Calif. […]

Substance | % Inhibition of PKA catalytic subunit C-alpha mRNA levels [%]
102448 (antisense GTTGCCCATCGCGGCGGCGG; chemistry not given here) [compound 102448] | 47
102446 (antisense TGCCCATCGCGGCGGCGGCG; chemistry not given here) [compound 102446] | 29
102482 (antisense CCAGCATCACCCGCCCGAAG; chemistry not given here) [compound 102482] | 66
102454 (antisense CGGCGTTGCCCATCGCGGCG; chemistry not given here) [compound 102454] | 53
102568 (antisense CAGGCAGCCCCTCCCCAGCA; chemistry not given here) [compound 102568] | 49
102502 (antisense TAGATGAGATCCAGCGAGTG; chemistry not given here) [compound 102502] | 28
102553 (antisense CGCTGCTGGGAGGAAAGACT; chemistry not given here) [compound 102553] | 52
102573 (antisense AGCACAAATGAGAAAGTGGG; chemistry not given here) [compound 102573] | 7
102538 (antisense AAGCAACCCACTGAACATGT; chemistry not given here) [compound 102538] | 38
102579 (antisense TGGCTCCCCAGCGGCTCCCC; chemistry not given here) [compound 102579] | 36

Same assay, conditions: Table 2, chimeric phosphorothioate 2'-MOE gapmers, averaged from two experiments

Substance | % Inhibition of PKA catalytic subunit C-alpha mRNA levels [%]
102688 (antisense TCTGCGAAGAAGGGCGGGTA; chemistry not given here) [compound 102688] | 52
102692 (antisense TCCTTCAAGTCAGAGCTGAA; chemistry not given here) [compound 102692] | 67
102609 (antisense CATCGCGGCGGCGGCGGCCG; chemistry not given here) [compound 102609] | 66
102645 (antisense CGGCGGCGGCGTTGCCCATC; chemistry not given here) [compound 102645] | 84
102668 (antisense GCTTGCAGGATGCGCTTTTC; chemistry not given here) [compound 102668] | 76
102653 (antisense ATTCTTTCACGCTCTCCTGC; chemistry not given here) [compound 102653] | 55
102660 (antisense CCAGCATCACCCGCCCGAAG; chemistry not given here) [compound 102660] | 82
102604 (antisense TCGCGGCGGCGGCGGCCGGG; chemistry not given here) [compound 102604] | 70
102657 (antisense CAAACTGATCCAAGTGGGCT; chemistry not given here) [compound 102657] | 73
102684 (antisense GCGGCCCTTCACGCGCTTGG; chemistry not given here) [compound 102684] | 63
102731 (antisense TGCAGGGATGCCCTCCCCAC; chemistry not given here) [compound 102731] | 54
102649 (antisense GGCGGCGGCGGCGTTGCCCA; chemistry not given here) [compound 102649] | 85
102676 (antisense GAACATCTCCCCGCCGGGCA; chemistry not given here) [compound 102676] | 92
